Results reported in US20260256779A1, “PYRIDAZIN-3-CARBOXAMIDE COMPOUND AS TYK2 INHIBITOR” (Guangzhou Fermion Technology Co., Ltd., priority 2022, published 2026).

Tests used:
TYK2 JH2 pseudokinase = molecular target: T1, TYK2 JH2 pseudokinase (Homo sapiens, UniProt P29597); assay: TYK2 JH2 in vitro enzyme binding assay (TR-FRET); conditions: 60 min at room temperature
T1 construct: 5 μL of 3×TYK2 JH2 kinase (Bioduro); purchased Bioduro
Description: Purpose: The purpose of this test example was to use a fluorescence resonance energy transfer (TR-FRET) method to test the binding effect of the compound on a TYK2 JH2 pseudokinase, and then evaluate the affinity of the compound for TYK2 JH2.
DMSO-dissolved compounds were used to prepare 10 mM stock solutions, then 200× compounds having different gradient concentrations were prepared in a compound dilution plate, and transferred to an Echo plate. 75 nL of the compounds were transferred from the Echo plate to a 384-well assay plate using an Echo instrument, and 5 μL of 3×TYK2 JH2 kinase (Bioduro), 5 μL of 3× Tb antibody (Cisbio) and 5 μL of 3×TRACER (Bioduro) were added to the 384-well assay plate, centrifuged for 30 seconds, and incubated at room temperature for 60 minutes. A 495 nm/520 nm fluorescence signal ratio was read by an Envision microplate reader (PerkinElmer), and data was analyzed using XL-Fit software to calculate the IC50 of the compound.

[1] = system: IL-2-induced CD3+ pSTAT5 (JAK1/3) in hPBMC; assay: IL-2-induced STAT5 phosphorylation (JAK1/3) in CD3+ cell subpopulations in human PBMC, flow cytometry; assay type: cell-based; conditions: CD3+ cells, IL-2 stimulation
Description: Purpose: The purpose of this test example was to test the inhibitory effect of the compound on IL-2-induced STAT5 phosphorylation using protein phosphorylation flow cytometric analysis technology.
Human PBMC cells were pre-incubated with the compounds, STAT5 was induced to phosphorylate under appropriate stimulation conditions, and corresponding cell subpopulations and targets were stained. Flow cytometry was used to read cell data and analyze the strength of phosphorylated antibody signals under different compound concentrations. PBMCs were resuspended and dispensed into a 96-well plate, 62.5 μL/well. 3.5 μL of 20× compound working solutions were added and incubated at 37° C. for 30 minutes. 5 μL of PE Mouse Anti-Human CD3 (BD) was added and incubated at 37° C. in the dark for 30 minutes. 4 μL of 20× IL-2 (R&D) was added to each well and incubated at 37° C. in the dark for 20 minutes. All cells in the 96-well plate were transferred to a deep-well plate, 400 μL of a fixation working solution (Biolegend) was added to each well, and incubated at room temperature in the dark for 20 minutes. The cells were washed twice with PBS, and 400 μL of Perm Buffer III (BD) was added and incubated at 4° C. in the dark for 40 minutes. The cells were washed twice with PBS, and 100 μL of a STAT5 pY694 antibody working solution (BD) was added and incubated at room temperature for 40 minutes. After washing once with PBS, the cells were resuspended in 200 μL of a staining buffer and transferred to a sample plate. The antibody fluorescence intensity was analyzed using FlowJo software, and the IC50 of the compound was calculated using XL-Fit software.

[2] = Pharmacokinetic evaluation by intravenous injection or oral gavage in mice; assay type: in vivo; conditions: ICR mice; for AUC(0-t) / Cmax / Tmax / half-life / clearance / Vd: mouse, plasma; for Vd: read-out: Vz
Description: The inventors evaluated the pharmacokinetic properties of the compound of the present invention in mice.
The compound of the present invention was administered to the test animals in the form of 5% DMA+5% Solutol+90% saline or 5% ethanol+5% TPGS+90% PEG300 solvent. The animals were fasted for 12 hours before administration and had free access to water. For the intravenous administration group, the dose was 1 mg/kg. The drug was administered by intragastric administration at a dose of 10 mg/kg. After the drug administration, blood was intravenously drawn from the animals at the following time points (blood volume was approximately 0.3 mL): 0.083, 0.25, 0.5, 1.0, 2.0, 4.0, 8.0 and 24 h. EDTA-K2 was pre-added to blood collection tubes as an anticoagulant, and the blood samples were centrifuged at 6800 g for 6 min to collect plasma, which was then stored at −80° C.
Sample preparation for LC-MS/MS assay: 15 μL of plasma samples was used for protein precipitation with 300 μL of methanol containing 100 ng/mL IS (IS was tolbutamide). The mixture was vortexed for 1 min and then centrifuged at 18000 g for 10 min. 300 μL of the supernatant was transferred to a 96-well plate. 2 μL of the supernatant was subjected to LC-MS/MS analysis.

[3] = intragastric administration, 10 mg/kg
[4] = po, intragastric administration, 10 mg/kg
[5] = intravenous administration, 1 mg/kg

T1 sequence (P29597 589-875 limits assumed): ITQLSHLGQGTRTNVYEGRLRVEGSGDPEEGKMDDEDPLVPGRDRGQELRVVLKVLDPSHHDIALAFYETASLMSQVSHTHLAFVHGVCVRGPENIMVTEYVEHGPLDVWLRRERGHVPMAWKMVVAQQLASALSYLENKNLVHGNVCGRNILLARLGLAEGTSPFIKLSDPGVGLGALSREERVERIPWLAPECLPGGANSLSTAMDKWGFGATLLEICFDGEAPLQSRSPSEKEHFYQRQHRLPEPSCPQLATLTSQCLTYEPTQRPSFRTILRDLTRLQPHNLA

CONC(=O)c1nnc(NC(=O)C2CC2)cc1Nc1cccc(-c2ncn(C)n2)c1OC [Compound 1, 6-(Cyclopropylcarboxamido)-N-methoxy-4-((2-methoxy-3-(1-methyl-1H-1,2,4-triazol-3-yl)phenyl)amino)pyridazine-3-carboxamide]
IC50 (TYK2 JH2 pseudokinase): 0.17 nM

CONC(=O)c1nnc(Nc2cccc(C#N)n2)cc1Nc1cccc(-c2ncn(C)n2)c1OC [Compound 2, 6-((6-cyanopyridin-2-yl)amino)-N-methoxy-4-((2-methoxy-3-(1-methyl-1H-1,2,4-triazol-3-yl)phenyl)amino)pyridazine-3-carboxamide]
IC50 (TYK2 JH2 pseudokinase): 0.16 nM

CCONC(=O)c1nnc(NC(=O)C2CC2)cc1Nc1cccc(-c2ncn(C)n2)c1OC [Compound 3, 6-(Cyclopropylcarboxamido)-N-ethoxy-4-((2-methoxy-3-(1-methyl-1H-1,2,4-triazol-3-yl)phenyl)amino)pyridazine-3-carboxamide]
IC50 (TYK2 JH2 pseudokinase): 0.13 nM

CCONC(=O)c1nnc(NC(=O)C2CC2)cc1Nc1cc(F)cc(-c2ncn(C)n2)c1OC [Compound 4, 6-(Cyclopropylcarboxamido)-N-ethoxy-4-((5-fluoro-2-methoxy-3-(1-methyl-1H-1,2,4-triazol-3-yl)phenyl)amino)pyridazine-3-carboxamide]
IC50 (TYK2 JH2 pseudokinase): 0.2 nM

[2H]C([2H])([2H])n1cnc(-c2cccc(Nc3cc(NC(=O)C4CC4)nnc3C(=O)NOCC)c2OC)n1 [Compound 5, 6-(Cyclopropylcarboxamido)-N-ethoxy-4-((2-methoxy-3-(1-(methyl-d3)-1H-1,2,4-triazol-3-yl)phenyl)amino)pyridazine-3-carboxamide]
IC50 (TYK2 JH2 pseudokinase): 0.26 nM

[2H]C([2H])([2H])n1cnc(-c2cc(F)cc(Nc3cc(NC(=O)C4CC4)nnc3C(=O)NOCC)c2OC)n1 [Compound 6, 6-(Cyclopropylcarboxamido)-N-ethoxy-4-((5-fluoro-2-methoxy-3-(1-(methyl-d3)-1H-1,2,4-triazol-3-yl)phenyl)amino)pyridazine-3-carboxamide]
IC50 (TYK2 JH2 pseudokinase): 0.3 nM

CCONC(=O)c1nnc(NC(=O)C2CC2)cc1Nc1cccc(-c2ncn(C3CC3)n2)c1OC [Compound 7, 6-(Cyclopropylcarboxamido)-4-((3-(1-cyclopropyl-1H-1,2,4-triazol-3-yl)-2-methoxyphenyl)amino)-N-ethoxypyridazine-3-carboxamide]
IC50 [1]: > 30000 nM | F [2, 3]: 29.09% | AUC(0-t) [2, 4]: 7850 ng·h/mL | Cmax [2, 4]: 3460 ng/mL | Tmax [2, 4]: 0.83 h | half-life [2, 4]: 3.75 h | AUC(0-t) [2, 5]: 2700 ng·h/mL | Cmax [2, 5]: 3620 ng/mL | Tmax [2, 5]: 0.08 h | clearance [2, 5]: 6.13 mL/min/kg | half-life [2, 5]: 1.51 h | Vd [2, 5]: 0.81 L/kg | IC50 (TYK2 JH2 pseudokinase): 0.17 nM

CCONC(=O)c1nnc(NC(=O)C2CC2)cc1Nc1cc(F)cc(-c2ncn(C3CC3)n2)c1OC [Compound 8, 6-(Cyclopropylcarboxamido)-4-((3-(1-cyclopropyl-1H-1,2,4-triazol-3-yl)-5-fluoro-2-methoxyphenyl)amino)-N-ethoxypyridazine-3-carboxamide]
IC50 (TYK2 JH2 pseudokinase): 0.33 nM

[2H]C([2H])([2H])Oc1c(Nc2cc(NC(=O)C3CC3)nnc2C(=O)NOCC)cccc1-c1ncn(C2CC2)n1 [Compound 9, 6-(Cyclopropylcarboxamido)-4-((3-(1-cyclopropyl-1H-1,2,4-triazol-3-yl)-2-(methoxy-d3)phenyl)amino)-N-ethoxypyridazine-3-carboxamide]
IC50 [1]: > 30000 nM | F [2, 3]: 72.48% | AUC(0-t) [2, 4]: 20100 ng·h/mL | Cmax [2, 4]: 9220 ng/mL | Tmax [2, 4]: 0.67 h | half-life [2, 4]: 4.64 h | AUC(0-t) [2, 5]: 2780 ng·h/mL | Cmax [2, 5]: 3730 ng/mL | Tmax [2, 5]: 0.08 h | clearance [2, 5]: 6.09 mL/min/kg | half-life [2, 5]: 4.3 h | Vd [2, 5]: 1.8 L/kg | IC50 (TYK2 JH2 pseudokinase): 0.22 nM

[2H]C([2H])([2H])ONC(=O)c1nnc(NC(=O)C2CC2)cc1Nc1cccc(-c2ncn(C)n2)c1OC [Compound 14, 6-(Cyclopropylcarboxamido)-N-(methoxy-d3)-4-((2-methoxy-3-(1-methyl-1H-1,2,4-triazol-3-yl)phenyl)amino)pyridazine-3-carboxamide]
IC50 (TYK2 JH2 pseudokinase): 0.27 nM

[2H]C([2H])([2H])C([2H])([2H])ONC(=O)c1nnc(NC(=O)C2CC2)cc1Nc1cccc(-c2ncn(C)n2)c1OC [Compound 15, 6-(Cyclopropylcarboxamido)-N-(ethoxy-d5)-4-((2-methoxy-3-(1-methyl-1H-1,2,4-triazol-3-yl)phenyl)amino)pyridazine-3-carboxamide]
IC50 (TYK2 JH2 pseudokinase): 0.14 nM

[2H]C([2H])([2H])ONC(=O)c1nnc(NC(=O)C2CC2)cc1Nc1cccc(-c2ncn(C3CC3)n2)c1OC [Compound 16, 6-(Cyclopropanamido)-4-((3-(1-cyclopropyl-1H-1,2,4-triazol-3-yl)-2-methoxyphenyl)amino)-N-(methoxy-d3)pyridazine-3-carboxamide]
IC50 (TYK2 JH2 pseudokinase): 0.29 nM

[2H]C([2H])([2H])C([2H])([2H])ONC(=O)c1nnc(NC(=O)C2CC2)cc1Nc1cccc(-c2ncn(C3CC3)n2)c1OC [Compound 17, 6-(Cyclopropylcarboxamido)-4-((3-(1-cyclopropyl-1H-1,2,4-triazol-3-yl)-2-methoxyphenyl)amino)-N-(ethoxy-d5)pyridazine-3-carboxamide]
IC50 [1]: > 30000 nM | F [2, 3]: 94.13% | AUC(0-t) [2, 4]: 17500 ng·h/mL | Cmax [2, 4]: 5640 ng/mL | Tmax [2, 4]: 0.67 h | half-life [2, 4]: 5.03 h | AUC(0-t) [2, 5]: 1860 ng·h/mL | Cmax [2, 5]: 3400 ng/mL | Tmax [2, 5]: 0.08 h | clearance [2, 5]: 9.13 mL/min/kg | half-life [2, 5]: 3.61 h | Vd [2, 5]: 2.77 L/kg | IC50 (TYK2 JH2 pseudokinase): 0.19 nM

BMS-986165 [reference compound]
IC50 [1]: 409 nM
